Assay results as given in patent US20230078764A1 (Yumanity Therapeutics, Inc., priority 2019, published 2023).
Where two headings read alike, the source gives them in different places.

Experiments:
[1] = molecular target: T1, human SCD5 (Homo sapiens, UniProt Q86SK9); experiment: Growth inhibition of yeast strain expressing human SCD5 as sole desaturase (OLE1 deleted), OD600 readout; type: cell-based
T1 construct: expressed in transfected cells; host or cells: yeast strain with OLE1 deleted, plasmid-borne human SCD5 (selected in SD-Ura)
T1 sequence (Q86SK9 1-330): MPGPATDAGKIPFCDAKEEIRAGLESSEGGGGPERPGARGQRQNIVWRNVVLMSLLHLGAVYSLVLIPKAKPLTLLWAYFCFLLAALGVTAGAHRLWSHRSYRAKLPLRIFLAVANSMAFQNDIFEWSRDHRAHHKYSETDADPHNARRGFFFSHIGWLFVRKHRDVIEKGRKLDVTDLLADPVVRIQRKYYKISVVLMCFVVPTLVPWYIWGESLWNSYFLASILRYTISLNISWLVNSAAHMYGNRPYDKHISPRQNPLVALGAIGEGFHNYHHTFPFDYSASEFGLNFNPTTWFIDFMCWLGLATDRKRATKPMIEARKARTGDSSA

[2] = molecular target: T2, human SCD1 (Homo sapiens, UniProt O00767); experiment: Growth inhibition of yeast strain expressing human SCD1 as sole desaturase (OLE1 deleted), OD600 readout; type: cell-based
T2 construct: expressed in transfected cells; host or cells: yeast strain with OLE1 deleted, plasmid-borne human SCD1 (selected in SD-Ura)
T2 sequence (O00767 1-359): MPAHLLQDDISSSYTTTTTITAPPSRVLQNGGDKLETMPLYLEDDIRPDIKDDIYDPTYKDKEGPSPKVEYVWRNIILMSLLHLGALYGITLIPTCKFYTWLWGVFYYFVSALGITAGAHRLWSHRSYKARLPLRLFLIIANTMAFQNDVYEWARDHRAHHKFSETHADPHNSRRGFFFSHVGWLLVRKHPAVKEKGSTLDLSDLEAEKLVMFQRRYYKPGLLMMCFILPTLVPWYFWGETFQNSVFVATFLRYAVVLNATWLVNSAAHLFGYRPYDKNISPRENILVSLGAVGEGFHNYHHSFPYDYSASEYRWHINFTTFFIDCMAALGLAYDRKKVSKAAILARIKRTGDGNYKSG

[3] = yeast strain expressing human SCD5 as sole desaturase, growth (OD600) after 40 h at 30° C., read-out: SCD5 IC50
[4] = yeast strain expressing human SCD1 as sole desaturase, growth (OD600) after 40 h at 30° C., read-out: SCD1 IC50

Row | SMILES | IC50 [1, 3] | IC50 [2, 4] | IC50 ([1]; SCD5 IC50) | IC50 ([2]; SCD1 IC50)
1 | N#Cc1cnc(C(=O)Nc2ccc(Cc3ccc(F)c(C#N)c3)cn2)cn1 [Compound 654] | 56 nM | 1900 nM | – | –
2 | N#Cc1cc(F)cc(Cc2ccc(NC(=O)c3cnc(C#N)cn3)nc2)c1 [Compound 655] | 35 nM | 360 nM | – | –
3 | N#Cc1cc(F)cc(Cc2ccc(NC(=O)c3ccnnc3)nc2)c1 [Compound 656] | 110 nM | 220 nM | – | –
4 | O=C(Nc1ccc(Cc2cc(F)cc(F)c2)cn1)c1cnnc(Cl)c1 [Compound 657] | 10 nM | 10 nM | – | –
5 | Cn1nc(C(=O)Nc2ccc(COc3cc(F)cc(F)c3)cn2)ccc1=O [Compound 658] | 180 nM | 1600 nM | – | –
6 | O=C(Nc1ccc(Cc2cc(F)cc(Cl)c2)cn1)c1cnc(Cl)cn1 [Compound 659] | 55 nM | 350 nM | – | –
7 | Cn1cc(C(=O)Nc2ccc(N3CC(Oc4cccc(Cl)c4)C3)cn2)ccc1=O [Compound 660] | 8900 nM | > 45000 nM | – | –
8 | N#Cc1cnc(C(=O)Nc2ccc(Cc3cc(F)cc(Cl)c3)cn2)cn1 [Compound 661] | 10 nM | 180 nM | – | –
9 | N#Cc1cc(C(=O)Nc2ccc(Cc3cc(F)cc(F)c3)cn2)cnn1 [Compound 662] | 180 nM | 300 nM | – | –
10 | Cc1cc(C(=O)Nc2ccc(Cc3cc(F)cc(C#N)c3)cn2)cnc1C#N [Compound 663] | 39 nM | > 45000 nM | – | –
11 | Cn1nc(C(=O)Nc2ccc(COc3ccc(F)c(F)c3)cn2)ccc1=O [Compound 664] | 900 nM | 31000 nM | – | –
12 | Cc1cc(C(=O)Nc2ccc(Cc3cc(F)cc(C#N)c3)cn2)cnc1Cl [Compound 665] | 490 nM | > 45000 nM | – | –
13 | N#Cc1cc(F)cc(Cc2ccc(NC(=O)c3ccnc(Cl)n3)nc2)c1 [Compound 666] | 290 nM | 3600 nM | – | –
14 | Cn1nc(C(=O)Nc2ccc(COc3ccc(Cl)c(F)c3)cn2)ccc1=O [Compound 667] | 310 nM | > 45000 nM | – | –
15 | Cn1cc(C(=O)Nc2ccc(Cc3cc(F)cc(Cl)c3)cn2)n(C)c1=O [Compound 668] | 10 nM | 10 nM | – | –
16 | N#Cc1cc(Cl)cc(Cc2ccc(NC(=O)c3ccnnc3)nc2)c1 [Compound 669] | 73 nM | 220 nM | – | –
17 | Cn1nc(C(=O)Nc2ccc(COc3ccc(Cl)cc3)cn2)ccc1=O [Compound 670] | 1800 nM | > 45000 nM | – | –
18 | Cn1nc(C(=O)Nc2ccc(COc3cc(Cl)cc(C#N)c3)cn2)ccc1=O [Compound 671] | 2000 nM | > 45000 nM | – | –
19 | Cn1cc(C(=O)Nc2ccc(Cc3cc(F)cc(C#N)c3)cn2)ccc1=O [Example 25, N-(5-(3-cyano-5-fluorobenzyl)pyridin-2-yl)-1-methyl-6-oxo-1,6-dihydropyridine-3-carboxamide] | – | – | 530 nM | 4030 nM
20 | Cn1nc(C(=O)Nc2ccc(Cc3ccc(F)c(F)c3)cn2)ccc1=O [Example 35, N-(5-(3,4-difluorobenzyl)pyridin-2-yl)-1-methyl-6-oxo-1,6-dihydropyridazine-3-carboxamide] | 300 nM | > 45000 nM | – | –
21 | Cn1nc(C(=O)Nc2ccc(Cc3ccc(Cl)cc3)cn2)ccc1=O [Example 36, N-(5-(4-chlorobenzyl)pyridin-2-yl)-1-methyl-6-oxo-1,6-dihydropyridazine-3-carboxamide] | 380 nM | 16900 nM | – | –
22 | Cn1nc(C(=O)Nc2ccc(Cc3cc(F)cc(F)c3)cn2)ccc1=O [Example 37, N-(5-(3,5-difluorobenzyl)pyridin-2-yl)-1-methyl-6-oxo-1,6-dihydropyridazine-3-carboxamide] | 50 nM | 10200 nM | – | –
23 | Cn1nc(C(=O)Nc2ccc(CC3CCCCC3)cn2)ccc1=O [Example 38, N-(5-(cyclohexylmethyl)pyridin-2-yl)-1-methyl-6-oxo-1,6-dihydropyridazine-3-carboxamide] | 890 nM | 15700 nM | – | –

More lines, main results first:

Row | IC50 [1, 3] | IC50 [2, 4] | SMILES | IC50 ([1]; SCD5 IC50) | IC50 ([2]; SCD1 IC50)
24 | 420 nM | 500 nM | Cn1cc(C(=O)Nc2ccc(Cc3cc(F)cc(F)c3)cn2)ncc1=O [Compound 672] | – | –
25 | 12000 nM | > 45000 nM | CNC(=O)c1ccnc(C(=O)Nc2ccc(Oc3ccccc3Cl)cn2)c1 [Compound 675] | – | –
26 | 10 nM | 83 nM | Cc1cc(C(=O)Nc2ccc(Cc3cc(F)cc(F)c3)cn2)cn(C)c1=O [Compound 676] | – | –
27 | 79 nM | > 45000 nM | N#Cc1cc(Cl)cc(Cc2ccc(NC(=O)c3cnc(C#N)cn3)nc2)c1 [Compound 677] | – | –
28 | 380 nM | 320 nM | CNC(=O)c1ccnc(NC(=O)c2ccc(Oc3ccccc3Cl)cn2)c1 [Compound 678] | – | –
29 | 10 nM | 570 nM | Cc1cc(C(=O)Nc2ccc(Cc3ccc(F)c(F)c3)cn2)cn(C)c1=O [Compound 679] | – | –
30 | 25 nM | 2700 nM | Cn1nc(C(=O)Nc2ccc(Cc3cc(F)cc(F)c3Cl)cn2)ccc1=O [Compound 680] | – | –
31 | 2100 nM | > 45000 nM | O=C(Nc1ccc(Cc2cccc(Cl)c2)cn1)c1nnc(C(F)(F)F)o1 [Compound 681] | – | –
32 | 200 nM | 100 nM | O=C(NNC(=O)C(F)(F)F)C(=O)Nc1ccc(Cc2cccc(Cl)c2)cn1 [Compound 682] | – | –
33 | 3900 nM | 8100 nM | N#Cc1nc(C(=O)Nc2ccc(Cc3cc(F)cc(F)c3)cn2)co1 [Compound 683] | – | –
34 | 450 nM | > 45000 nM | CN1N=C(C(=O)Nc2ccc(Cc3cccc(Cl)c3)cn2)CCC1=O [Example 15, N-(5-(3-chlorobenzyl)pyridin-2-yl)-1-methyl-6-oxo-1,4,5,6-tetrahydropyridazine-3-carboxamide] | – | –
35 | 1600 nM | 8570 nM | CN1N=C(C(=O)Nc2ccc(Cc3cccc(C(F)(F)F)c3)cn2)CCC1=O [Example 18, 1-methyl-6-oxo-N-(5-(3-(trifluoromethyl)benzyl)pyridin-2-yl)-1,4,5,6-tetrahydropyridazine-3-carboxamide] | – | –
36 | 30 nM | 220 nM | CN1N=C(C(=O)Nc2ccc(Cc3ccc(Cl)c(Cl)c3)cn2)CCC1=O [Example 20, N-(5-(3,4-dichlorobenzyl)pyridin-2-yl)-1-methyl-6-oxo-1,4,5,6-tetrahydropyridazine-3-carboxamide] | – | –
37 | 1780 nM | > 45000 nM | CN1N=C(C(=O)Nc2ccc(Cc3ccc(Cl)s3)cn2)CCC1=O [Example 21, N-(5-((5-chlorothiophen-2-yl)methyl)pyridin-2-yl)-1-methyl-6-oxo-1,4,5,6-tetrahydropyridazine-3-carboxamide] | – | –
38 | 2490 nM | > 45000 nM | CN1N=C(C(=O)Nc2ccc(Cc3cccc(C4CC4)c3)cn2)CCC1=O [Example 23, N-(5-(3-cyclopropylbenzyl)pyridin-2-yl)-1-methyl-6-oxo-1,4,5,6-tetrahydropyridazine-3-carboxamide] | – | –
39 | 390 nM | > 45000 nM | CN1N=C(C(=O)Nc2ccc(Cc3cccc(Br)c3)cn2)CCC1=O [Example 27, N-(5-(3-bromobenzyl)pyridin-2-yl)-1-methyl-6-oxo-1,4,5,6-tetrahydropyridazine-3-carboxamide] | – | –
40 | 20 nM | 1950 nM | CN1N=C(C(=O)Nc2ccc(Cc3cc(F)cc(Cl)c3)cn2)CCC1=O [Example 28, N-(5-(3-chloro-5-fluorobenzyl)pyridin-2-yl)-1-methyl-6-oxo-1,4,5,6-tetrahydropyridazine-3-carboxamide] | – | –
41 | 3530 nM | > 45000 nM | COc1cccc(Cc2ccc(NC(=O)C3=NN(C)C(=O)CC3)nc2)c1 [Example 30, N-(5-(3-methoxybenzyl)pyridin-2-yl)-1-methyl-6-oxo-1,4,5,6-tetrahydropyridazine-3-carboxamide] | – | –
42 | 50 nM | 6280 nM | CN1N=C(C(=O)Nc2ccc(Cc3cc(Cl)cc(Cl)c3)cn2)CCC1=O [Example 31] | – | –
43 | 310 nM | 26400 nM | CN1N=C(C(=O)Nc2ccc(Cc3cccc(C(F)F)c3)cn2)CCC1=O [Example 32, N-(5-(3-(difluoromethyl)benzyl)pyridin-2-yl)-1-methyl-6-oxo-1,4,5,6-tetrahydropyridazine-3-carboxamide] | – | –
44 | 18000 nM | > 45000 nM | CN1N=C(C(=O)Nc2ccc(Cc3ccc(C#N)c(Cl)c3)cn2)CCC1=O [Example 33, N-(5-(3-chloro-4-cyanobenzyl)pyridin-2-yl)-1-methyl-6-oxo-1,4,5,6-tetrahydropyridazine-3-carboxamide] | – | –
45 | 710 nM | > 45000 nM | CN1N=C(C(=O)Nc2ccc(CC3=CCCCC3)cn2)CCC1=O [Example 34, N-(5-(cyclohexenylmethyl)pyridin-2-yl)-1-methyl-6-oxo-1,4,5,6-tetrahydropyridazine-3-carboxamide] | – | –
